Measured values as given in paper PMC8757608 (Journal of Enzyme Inhibition and Medicinal Chemistry, 2022).

How the values were obtained:
[1] = system: HL60(TB) (leukemia); assay: NCI-60 single dose screen, HL60; type: cell-based; conditions: Homo sapiens, HL-60, read-out: percent growth inhibition
[2] = system: K-562 (leukemia); assay: NCI-60 single dose screen, K-562; type: cell-based; conditions: Homo sapiens, K562, read-out: percent growth inhibition

In the case of `Cc1cc(=O)[nH]c(=O)n1Cc1cn(-c2c3ccccc3nc3ccccc23)nn1` [Compound 8, 1-((1-(Acridin-9-yl)-1H-1,2,3-triazol-4-yl)methyl)-6-methylpyrimidine-2,4(1H,3H)-dione], the inhibition at 10 µM [1] is reported as 92.9% and the inhibition at 10 µM [2] is reported as 83.7%.
